Assay results reported in patent US20250032375A1, “SOLVENT MIXTURES COMPRISING 1,3-BUTYLENE GLYCOL AND TRIETHYL-CITRATE” (Givaudan SA, priority 2022, published 2025).
Counter-ions that a name gives are not always drawn. Like-named read-outs stand apart in the source and are kept apart here. One block for each molecule: values may come before it.

What was measured:
[1] = Miscibility and stability in matrix and application; details: for miscibility and stability properties compared to DPG: fragrance oil matrix and Eau de Toilette (at 10%)
Excerpt: The miscibility and stability of the solvent mixture of the present invention was compared with those of DPG and the pure mixture ingredients. The miscibility with isopropyl myristate (IPM) and ethylene brassylate (EB) mimics the miscibility with a fragrance oil matrix.

[2] = Solubility by visual inspection
Description: (§1) If the sample is dissolved, there is low absorbance (close to zero), any turbidity (>0.5) indicates incomplete solution.

[3] = Solubility by absorption spectrometry (absorbance at 600 nm, 1 cm path)
Description: as §1

[4] = Solubility and storage stability of fragrance ingredients in TEC/1,3-butylene glycol 80/20 mixture; type: physicochemical; details: for solubility: t = 0, 5 min. heating at 50° C. + 8-10 hrs. stirring at room temperature
Description: In the table above, the solubility of single ingredients solubility has been summarized. […] Furthermore, the storage stability at 5 and 60° C. for 14 days have been tested.

[5] = Vanillin solubility in other solvents; type: physicochemical
[6] = 10% in EDT premix, 14 days 5° C.
[7] = 10% in EDT premix, t = 0 at room temperature
[8] = 10% in 1,3-butylene glycol (*), sample heated and cooled down to room temperature
[9] = 10% in 1:1 MIX (*), sample heated and cooled down to room temperature
[10] = 10% in 1:3 MIX (*), sample heated and cooled down to room temperature
[11] = 10% in 3:1 MIX (*), sample heated and cooled down to room temperature
[12] = 10% in TEC (*), sample heated and cooled down to room temperature
[13] = 1% in 1,3-butylene glycol (*), sample heated and cooled down to room temperature
[14] = 1% in 1:3 MIX (*), sample heated and cooled down to room temperature
[15] = 1% in 3:1 MIX (*), sample heated and cooled down to room temperature
[16] = 1% in TEC (*), sample heated and cooled down to room temperature

SMILES: CC(O)CCO (centres unmarked) [1,3-butylene glycol]
miscibility and stability rating ([1]; 10% in EDT premix, 24 h UV): clear
miscibility and stability rating [1, 6]: clear
miscibility and stability rating [1, 7]: clear
miscibility and stability rating ([1]; 10% in IPM, 14 days 5° C.): biphasic, hazy
miscibility and stability properties compared to DPG [1]: show disadvantages when compared to DPG
miscibility and stability rating ([1]; pure, 14 days 5° C.): clear

SMILES: O=c1ccc2ccccc2o1 [Coumarine Pure Crist, 1-benzopyran-2-one]
visual inspection [2, 8]: soluble
visual inspection [2, 9]: soluble
visual inspection [2, 10]: soluble
visual inspection [2, 11]: soluble
visual inspection [2, 12]: soluble
ultrasonic bath, spectrometer [3, 8]: 0.06 AU
ultrasonic bath, spectrometer [3, 9]: 0.05 AU
ultrasonic bath, spectrometer [3, 10]: 0.00 AU
ultrasonic bath, spectrometer [3, 11]: 0.02 AU
ultrasonic bath, spectrometer [3, 12]: 0.07 AU

SMILES: CCOc1cc(C=O)ccc1O [Ethyl Vanilline, 3-Ethoxy-4-hydroxybenzaldehyde]
ultrasonic bath, spectrometer (30 %): 0.00 AU
ultrasonic bath, spectrometer (40 %): 0.04 AU

Other lines, results leading:

visual inspection [2, 13]: non soluble
visual inspection [2, 14]: soluble
visual inspection [2, 15]: soluble
visual inspection [2, 16]: non soluble
ultrasonic bath, spectrometer [3, 13]: solid
ultrasonic bath, spectrometer [3, 14]: 0.02 AU
ultrasonic bath, spectrometer [3, 15]: 0.02 AU
ultrasonic bath, spectrometer [3, 16]: solid
SMILES: Cc1occc(=O)c1O [Maltol Lg Crist, 3-hydroxy-2-methyl pyran-4-one]

visual inspection ([2]; 10% in 1,3-butylene glycol): non soluble
visual inspection ([2]; 10% in 1:1 MIX): soluble
visual inspection ([2]; 10% in 1:3 MIX): soluble
visual inspection ([2]; 10% in 3:1 MIX): soluble
visual inspection ([2]; 10% in TEC): soluble
ultrasonic bath, spectrometer ([3]; 10% in 1,3-butylene glycol): >2 AU
ultrasonic bath, spectrometer ([3]; 10% in 1:1 MIX): 0.00 AU
ultrasonic bath, spectrometer ([3]; 10% in 1:3 MIX): 0.02 AU
ultrasonic bath, spectrometer ([3]; 10% in 3:1 MIX): 0.02 AU
ultrasonic bath, spectrometer ([3]; 10% in TEC): 0.02 AU
SMILES: N#CC(=C1CCCCC1)c1ccccc1 [Peonile, 2-cyclohexylidene-2-phenylacetonitrile]

miscibility and stability rating ([1]; 3% in EDT premix, 24 h UV): clear
miscibility and stability rating ([1]; 3% in EDT premix, 14 days 5° C.): clear
miscibility and stability rating ([1]; 3% in EDT premix, 14 days −10° C.): clear
miscibility and stability rating ([1]; 3% in EDT premix, t = 0 at room temperature): clear
miscibility and stability rating ([1]; 5% in EDT premix, 24 h UV): clear
miscibility and stability rating ([1]; 5% in EDT premix, 14 days 5° C.): clear
miscibility and stability rating ([1]; 5% in EDT premix, 14 days −10° C.): clear
miscibility and stability rating ([1]; 5% in EDT premix, t = 0 at room temperature): clear
miscibility and stability rating ([1]; 10% in EB, 24 h UV): clear
miscibility and stability rating ([1]; 10% in EB, 14 d 60° C.): clear
miscibility and stability rating ([1]; 10% in EB, 14 days 5° C.): clear
miscibility and stability rating ([1]; 10% in EDT premix, 24 h UV): clear
miscibility and stability rating ([1]; 10% in EDT premix, 14 d 60° C.): clear
miscibility and stability rating [1, 6]: clear
miscibility and stability rating ([1]; 10% in EDT premix, 14 days −10° C.): clear
miscibility and stability rating [1, 7]: clear
miscibility and stability rating ([1]; 10% in IPM, 24 h UV): clear
miscibility and stability rating ([1]; 10% in IPM, 14 d 60° C.): clear
miscibility and stability rating ([1]; 10% in IPM, 14 days 5° C.): clear
miscibility and stability properties compared to DPG [1]: show disadvantages when compared to DPG
SMILES: CCOC(=O)CC(O)(CC(=O)OCC)C(=O)OCC [TEC, Triethyl citrate]

solubility ([4]; 15% in MIX 80/20): Solubility OK
solubility ([4]; 20% in MIX 80/20): Solubility OK
solubility ([4]; 25% in MIX 80/20): Solubility OK
amount that can be dissolved ([4]; in the solvent mixture of the present invention): at least 25%
amount that can be dissolved ([5]; in DPG, when saturation occurs): about 20%
amount that can be dissolved ([5]; in triethylcitrate (TEC)): less than 15%
SMILES: COc1cc(C=O)ccc1O [vanillin, 4-hydroxy-3-methoxybenzaldehyde]
